The values that follow are results of earlier work, collected in patent US20260284237A1, “RADIOLABELED FAPI COMPLEX, AND PREPARATION METHOD THEREFOR AND USE THEREOF” (BEIJING NORMAL UNIVERSITY, priority 2023, published 2026).

The conditions of series [1]: background statement.
Another series deals with FAP. Particulars: background statement.

Turning to `N#C[C@@H]1CC(F)(F)CN1C(=O)CNC(=O)c1ccnc2ccc(OCCCN3CCN(C(=O)CN4CCN(CC(=O)O)CCN(CC(=O)O)CCN(CC(=O)O)CC4)CC3)cc12` [FAPI-04], the “tumor uptake as radiotherapeutic drug” value in series [1] is reported as “relatively low tumor uptake”. Also, the “affinity and specificity toward the FAP” value in the series on FAP is “favorable affinity and specificity toward the FAP”.
